The molecules below were run against HSP27 (Homo sapiens, UniProt P04792) (assay: Capillary electrophoresis of the CS protein precipitates (precipitated citrate synthase as measure of HSP27 inhibition)). Details: 10 μmol/L; 43° C. for 70 minutes; 750 μmol/L BVDU set at 1.
Format: biochemical
Method: (§1) Since the heat-denatured protein aggregates of the citrate synthase from Example 1 are not water-soluble, these can be separated completely from the supernatant by means of centrifugation at room temperature at 16,000×g, 10 min. By using capillary electrophoresis, the compositions of the separated precipitates can be shown and quantified. The relative quantity of protein of precipitated citrate synthase serves as a measure of the efficacy of the test substances.
(§2) In each case, 481 nmol/L HSP27 and 1.44 μmol/L citrate synthase in 40 mmol/L HEPES buffer, pH 7.4, were employed. The relative quantity of protein of the precipitated citrate synthase in each case was normalized using a defined quantity of BSA as internal standard. The relative quantity of protein that precipitated when using 750 μmol/L BVDU was set at 1. The other test substances (2 representatives of phenothiazine derivatives of general formula (V), 2 representatives of purine derivatives of formula (I) or (II)) were each employed at a concentration of 10 μmol/L.
as §1, with “Example 2” for “Example 1”
as §2, with “nM” for “nmol/L”, “thymine” for “purine”, “were” for “were each”, “μmol/L in each case.” for “μmol/L.”
Otherwise, the experiments were performed as described above: […]

Sequence of HSP27 (P04792 whole entry): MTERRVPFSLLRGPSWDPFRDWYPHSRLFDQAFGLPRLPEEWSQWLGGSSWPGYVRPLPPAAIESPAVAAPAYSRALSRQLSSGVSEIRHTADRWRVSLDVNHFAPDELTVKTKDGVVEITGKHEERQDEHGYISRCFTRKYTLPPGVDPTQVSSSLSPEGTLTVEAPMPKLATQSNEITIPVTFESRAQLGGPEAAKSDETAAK

SMILES	Rel. quantity of protein prec. CS
Cc1cn(C2C[C@H](n3cc(-c4cccc(Br)c4)nn3)[C@@H](CO)O2)c(=O)[nH]c1=O (stereo partly drawn) [1-[(4S,5S)-4-[4-(3-Bromophenyl)-1H-1,2,3-triazol-1-yl]-5-(hydroxymethyl)oxolan-2-yl]-5-methyl-1,2,3,4-tetrahydropyrimidine-2,4-dione]	0.81
Cc1cn(C2C[C@H](n3cc(-c4ccc(Br)cc4)nn3)[C@@H](CO)O2)c(=O)[nH]c1=O (stereo partly drawn) [1-[(4S,5S)-4-[4-(4-Bromophenyl)-1,2,3-triazol-1-yl]-5-(hydroxymethyl)oxolan-2-yl]-5-methyl-3H-pyrimidine-2,4-dione]	0.64
COc1ccc(-c2cn([C@H]3CC(n4cc(C)c(=O)[nH]c4=O)O[C@@H]3CO)nn2)cc1 (stereo partly drawn) [1-[(4S,5S)-5-(Hydroxymethyl)-4-[4-(4-methoxyphenyl)-1,2,3-triazol-1-yl]oxolan-2-yl]-5-methyl-3H-pyrimidine-2,4-dione]	0.75
CCCCc1cn([C@H]2C[C@H](n3cc(C)c(=O)[nH]c3=O)O[C@@H]2CO)nn1 [3′-(4-Butyl-1H-1,2,3-triazol-1-yl)-3′-deoxythymidine]	0.76
CCCCCc1cn([C@H]2C[C@H](n3cc(C)c(=O)[nH]c3=O)O[C@@H]2CO)nn1 [3′-Deoxy-3′-(4-pentyl-1H-1,2,3-triazol-1-yl)thymidine]	0.70
Cc1cn([C@H]2C[C@H](n3cc(-c4ccccc4)nn3)[C@@H](CO)O2)c(=O)[nH]c1=O [3′-Deoxy-3′-(4-phenyl-1H-1,2,3-triazol-1-yl)thymidine]	0.79
CCCc1cn([C@H]2C[C@H](n3cc(C)c(=O)[nH]c3=O)O[C@@H]2CO)nn1 [3′-Deoxy-3′-(4-propyl-1H-1,2,3-triazol-1-yl)thymidine]	0.79
Cc1cn([C@H]2C[C@H](n3cc(C(C)(C)C)nn3)[C@@H](CO)O2)c(=O)[nH]c1=O [3′-Deoxy-3′-[4-(2-methyl-2-propanyl)-1H-1,2,3-triazol-1-yl]thymidine]	0.61
Cc1cn([C@H]2C[C@H](n3cc(CCc4ccccc4)nn3)[C@@H](CO)O2)c(=O)[nH]c1=O [3′-Deoxy-3′-[4-(2-phenylethyl)-1H-1,2,3-triazol-1-yl]-thymidine]	0.74
Cc1cn([C@H]2C[C@H](n3cc(-c4ccccn4)nn3)[C@@H](CO)O2)c(=O)[nH]c1=O [3′-Deoxy-3′-[4-(2-pyridinyl)-1H-1,2,3-triazol-1]-yl]thymidine]	0.84
Cc1cn([C@H]2C[C@H](n3cc(-c4ccc(Cl)c(Cl)c4)nn3)[C@@H](CO)O2)c(=O)[nH]c1=O [3′-Deoxy-3′-[4-(3,4-dichlorophenyl)-1H-1,2,3-triazol-1-yl]-thymidine]	0.86
Cc1cn([C@H]2C[C@H](n3cc(-c4ccc(F)cc4)nn3)[C@@H](CO)O2)c(=O)[nH]c1=O [3′-Deoxy-3′-[4-(4-fluorophenyl)-1H-1,2,3-triazol-1-yl]-thymidine]	0.66
Cc1cn([C@H]2C[C@H](n3cc(-c4ccc(Cl)cc4)nn3)[C@@H](CO)O2)c(=O)[nH]c1=O [3′-[4-(4-Chlorophenyl)-1H-1,2,3-triazol-1-yl]-3′-deoxythymidine]	0.67
Cc1cn([C@H]2C[C@H](n3cc(CC4CCCC4)nn3)[C@@H](CO)O2)c(=O)[nH]c1=O [3′-[4-(Cyclopentylmethyl)-1H-1,2,3-triazol-1-yl]-3′-deoxythymidine]	0.66
O=C(Cc1ccc(-c2ccccc2)cc1)NC/C=C\Cn1ccc(=O)[nH]c1=O [N-[(2Z)-4-(2,4-Dioxo-3H-pyrimidin-1-yl)but-2-en-1-yl]-2-(4-phenylphenyl)acetamide]	0.88

More lines, now with the values ahead:

Rel. quantity of protein prec. CS	SMILES
0.79	Cc1cn(CCCCNC(=O)C(c2ccccc2)c2ccccc2)c(=O)[nH]c1=O [N-[4-(5-Methyl-2,4-dioxo-3H-pyrimidin-1-yl)butyl]-2,2-diphenylacetamide]
0.67	Cc1cn(CCCCNC(=O)Cc2ccc(-c3ccccc3)cc2)c(=O)[nH]c1=O [N-[4-(5-Methyl-2,4-dioxo-3H-pyrimidin-1-yl)butyl]-2-(4-phenylphenyl)acetamide]
0.75	Cc1cn(CCCCNC(=O)Cc2ccc3ccccc3c2)c(=O)[nH]c1=O [N-[4-(5-Methyl-2,4-dioxo-3H-pyrimidin-1-yl)butyl]-2-(naphthalen-2-yl)acetamide]
0.58	Cc1cn(CCCCNC(=O)C2c3ccccc3-c3ccccc32)c(=O)[nH]c1=O [N-[4-(5-Methyl-2,4-dioxo-3H-pyrimidin-1-yl)butyl]-9H-fluorene-9-carboxamide]
0.68	Cc1cn(CCCCNC(=O)C2c3ccccc3Oc3ccccc32)c(=O)[nH]c1=O [N-[4-(5-Methyl-2,4-dioxo-3H-pyrimidin-1-yl)butyl]-9H-xanthene-9-carboxamide]
0.85	O=C(NC/C=C\Cn1ccc(=O)[nH]c1=O)C1c2ccccc2OC2C=CC=CC21 (centres unmarked) [N-[(2Z)-4-(2,4-Dioxo-3H-pyrimidin-1-yl)but-2-en-1-yl]-9,9a-dihydro-4aH-xanthene-9-carboxamide]
0.82	Cc1cn(C/C=C\CNC(=O)C(c2ccccc2)c2ccccc2)c(=O)[nH]c1=O [N-[(2Z)-4-(5-Methyl-2,4-dioxo-3H-pyrimidin-1-yl)but-2-en-1-yl]-2,2-diphenylacetamide]
0.81	Cc1cn(C/C=C\CNC(=O)Cc2cccc3ccccc23)c(=O)[nH]c1=O [N-[(2Z)-4-(5-Methyl-2,4-dioxo-3H-pyrimidin-1-yl)but-2-en-1-yl]-2-(naphthalen-1-yl)acetamide]
0.83	Cc1cn(C/C=C\CNC(=O)Cc2ccc3ccccc3c2)c(=O)[nH]c1=O [N-[(2Z)-4-(5-Methyl-2,4-dioxo-3H-pyrimidin-1-yl)but-2-en-1-yl]-2-(naphthalen-2-yl)acetamide]
0.86	Cc1cn(C/C=C\CNC(=O)C2c3ccccc3-c3ccccc32)c(=O)[nH]c1=O [N-[(2Z)-4-(5-Methyl-2,4-dioxo-3H-pyrimidin-1-yl)but-2-en-1-yl]-9H-fluorene-9-carboxamide]
0.78	Cc1cn(C/C=C\CNC(=O)c2cccc3ccccc23)c(=O)[nH]c1=O [N-[(2Z)-4-(5-Methyl-2,4-dioxo-3H-pyrimidin-1-yl)but-2-en-1-yl]naphthalene-1-carboxamide]

— patent publication US20170216297A1, “EFFICIENT INHIBITION OF HSP27” (TECHNISCHE UNIVERSITAET DRESDEN, priority 2014, published 2017)
